{
  "source": "patent US20230293491A1",
  "about": "“COMPOSITIONS AND METHODS FOR DIAGNOSIS AND TREATMENT OF CONDITIONS RELATED TO THE QUALITY OF AGING AND LONGEVITY” (EPITRACKER, INC., priority 2020, published 2023)",
  "molecular_target": "T1, α-2 adrenoreceptor (Homo sapiens, UniProt P08913)",
  "T1 construct": "purchased Eurofins/DiscoverX SafetyScan47 panel",
  "T1 sequence (P08913 1-465)": "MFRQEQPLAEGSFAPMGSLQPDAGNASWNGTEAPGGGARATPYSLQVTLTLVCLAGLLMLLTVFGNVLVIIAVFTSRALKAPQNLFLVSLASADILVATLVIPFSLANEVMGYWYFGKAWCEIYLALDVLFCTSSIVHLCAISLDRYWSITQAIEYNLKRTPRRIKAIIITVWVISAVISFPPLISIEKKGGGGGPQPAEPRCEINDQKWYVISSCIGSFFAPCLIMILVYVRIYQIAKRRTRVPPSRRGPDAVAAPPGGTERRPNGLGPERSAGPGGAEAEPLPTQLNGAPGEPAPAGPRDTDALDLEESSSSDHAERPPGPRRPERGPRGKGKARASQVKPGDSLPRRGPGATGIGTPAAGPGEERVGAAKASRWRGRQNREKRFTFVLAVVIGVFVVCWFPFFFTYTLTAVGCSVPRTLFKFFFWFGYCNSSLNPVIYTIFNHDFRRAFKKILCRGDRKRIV",
  "test": "Eurofins/DiscoverX SafetyScan47 panel, α-2 adrenoreceptor agonist activity",
  "type": "cell-based",
  "details": "compared to UK 14304 control; between 3 nM and 6.7 µM",
  "excerpt": "Given the associations between increased histidine betaine and improved health in the dolphin model, it was hypothesized that histidine betaine has direct therapeutic activities. To test this hypothesis, the Eurofins/DiscoverX SafetyScan47 panel was used to test histidine betaine at 10 concentrations for agonist and antagonist activities across 76 assays and 47 genes and targets that are relevant to compound safety and mechanisms of action, including G-protein coupled receptors, kinases, transporters, ion channels, nuclear receptors, and non-kinase enzymes. Detailed methods used for these assays and assay readouts are available from Eurofins/DiscoverX.\nOf 47 pharmacological targets tested for activity with histidine betaine, the following had partial activities, achieving at least 15% that of internal positive controls between 3 nM and 6.7 µM: α-2 adrenoreceptor agonist (maximum activity = 27% compared to UK 14304 control), and cyclooxygenase-1 (COX1) inhibitor (maximum activity = 23% compared to indomethacin control) (FIG. 4).",
  "data": [
    {"smiles": "C[N+](C)(C)C(Cc1cnc[nH]1)C(=O)[O-]", "note": "(stereo not shown) [histidine betaine]", "values": [
      {"measurement": "maximum activity, α-2 adrenoreceptor agonist", "value": 27, "unit": "%"}
    ]}
  ]
}
